Experimental data from PubChem BioAssay (NCI).
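Growth conditions: 96-well plates. Treatment: test compound, 48 hours, 5 concentrations. Analysis: linear interpolation between bracketing concentrations; unreached endpoints set to highest concentration. Definition used: TGI = concentration required for complete inhibition of growth.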

Legend:
Test in all cases: DTP human tumour cell line panel, 48 h
CCRF-CEM leukemia = tested on: CCRF-CEM leukemia
HOP-92 NSCLC = tested on: HOP-92 NSCLC
IGROV1 ovarian = tested on: IGROV1 ovarian
K-562 leukemia = tested on: K-562 leukemia
KM12 colon = tested on: KM12 colon
M14 melanoma = tested on: M14 melanoma
NCI-H226 lung = tested on: NCI-H226 lung
SF-295 CNS = tested on: SF-295 CNS
DU-145 prostate = tested on: DU-145 prostate
MDA-N = tested on: MDA-N
PC-3 prostate = tested on: PC-3 prostate

| Structure (SMILES) | TGI (CCRF-CEM leukemia) | TGI (HOP-92 NSCLC) | TGI (IGROV1 ovarian) | TGI (K-562 leukemia) | TGI (KM12 colon) | TGI (M14 melanoma) | TGI (NCI-H226 lung) | TGI (SF-295 CNS) | TGI (DU-145 prostate) | TGI (MDA-N) | TGI (PC-3 prostate) |
| --- | --- | --- | --- | --- | --- | --- | --- | --- | --- | --- | --- |
| COc1cc2c(cc1OC)C1(c3ccc(Cl)cc3)ON=C(c3ccccc3)N1CS2 (stereo not given) | > 100 µM | > 100 µM | > 100 µM | > 100 µM | > 100 µM | > 100 µM | > 100 µM | > 100 µM | – | – | – |
| CCN(c1cccc(NC(=S)Nc2ccccc2N(CC)c2cc(-c3ccccc3)no2)c1)c1cc(-c2ccccc2)no1 | > 100 µM | > 100 µM | > 100 µM | > 100 µM | > 100 µM | > 100 µM | > 100 µM | > 100 µM | > 100 µM | > 100 µM | > 100 µM |
| O=C(Cc1ccccc1)NN1C(=O)C(Cl)C1c1ccccc1O (stereo not given) | > 100 µM | – | > 100 µM | > 100 µM | – | 30.9 µM | 52.5 µM | > 100 µM | – | – | – |
| CC1(O)OC(=O)C2=C1CCC1C2CCC2(C)C(O)CCC12 (stereo not given) | > 100 µM | > 100 µM | > 100 µM | > 100 µM | > 100 µM | > 100 µM | > 100 µM | > 100 µM | > 100 µM | > 100 µM | – |
| COC(=O)c1c(O)ccc2c1C1(Cc3ccccc3C1=O)C(O)O2 (stereo not given) | 11.7 µM | 60.2 µM | 36.3 µM | > 100 µM | 69.1 µM | 52.2 µM | 35.5 µM | > 100 µM | > 100 µM | 28.7 µM | 92.2 µM |
| COc1cccc(N2C(=O)C3c4[nH]c5ccc(C)cc5c4C4CCC(C(C)(C)C)CC4C3C2=O)c1 (stereo not given) | 7.57 µM | – | > 10 µM | 7.67 µM | > 10 µM | > 10 µM | 8.78 µM | > 10 µM | > 10 µM | > 10 µM | > 10 µM |
| CC(C)CN=C(N)N=C(N)N | – | > 100 µM | > 100 µM | > 100 µM | > 100 µM | > 100 µM | > 100 µM | > 100 µM | > 100 µM | > 100 µM | > 100 µM |
| CCOP(=O)(OCC)C(C)(CC)NC (stereo not given) | 77.1 µM | > 100 µM | > 100 µM | > 100 µM | > 100 µM | > 100 µM | > 100 µM | > 100 µM | > 100 µM | > 100 µM | – |
| C=CCOC(=O)C1C2OC3(C(C(=O)OC)=C2C(=O)OC)c2ccccc2CCC13 (stereo not given) | > 10 µM | – | > 10 µM | > 10 µM | > 10 µM | > 10 µM | > 10 µM | > 10 µM | > 10 µM | > 10 µM | > 10 µM |
| O=C(O)CNC(=O)c1c2ccccc2nc2ccccc12 | > 100 µM | > 100 µM | > 100 µM | > 100 µM | > 100 µM | > 100 µM | > 100 µM | > 100 µM | > 100 µM | – | > 100 µM |
| Cc1ccc2nc(NC(=O)/C(Cc3nc4ccc(Cl)cc4[nH]c3=O)=N\NC(C)(C)C)sc2c1 | > 100 µM | > 100 µM | – | > 100 µM | > 100 µM | > 100 µM | 91.3 µM | > 100 µM | > 100 µM | > 100 µM | > 100 µM |
| CCOC(=O)c1ccc(C(=O)C(C(C)=O)C(=O)OC(C)(C)C)[nH]1 (stereo not given) | – | – | > 100 µM | > 100 µM | > 100 µM | > 100 µM | > 100 µM | > 100 µM | > 100 µM | > 100 µM | > 100 µM |
| Cc1ccc(CC(C)N)cc1 (stereo not given) | > 100 µM | > 100 µM | > 100 µM | > 100 µM | > 100 µM | > 100 µM | > 100 µM | > 100 µM | – | – | – |
| COc1ccc2c(c1)CCN1CCc3cc(OC)c(OC)cc3CC21 (stereo not given) | > 100 µM | > 100 µM | > 10 µM | > 100 µM | > 100 µM | > 100 µM | > 100 µM | > 100 µM | > 100 µM | – | – |
| O=c1onc2c3ccccc3ncn12 | > 100 µM | > 100 µM | > 100 µM | > 100 µM | > 100 µM | > 100 µM | > 100 µM | > 100 µM | > 100 µM | – | > 100 µM |
| Cc1cc(NCCCCCCCNc2cc(C)nc3cc([N+](=O)[O-])ccc23)c2ccc([N+](=O)[O-])cc2n1 | – | 47 µM | 37.1 µM | – | 3.74 µM | 41.2 µM | 37.4 µM | 26.4 µM | 11 µM | 3.18 µM | 31.1 µM |
| Cc1n[nH]c(=O)n1/N=C/c1ccc([N+](=O)[O-])o1 | > 100 µM | – | – | > 100 µM | 29.3 µM | 26.6 µM | 56 µM | > 100 µM | 22.3 µM | – | > 100 µM |
| O=C(Nc1cccc(F)c1)c1cc2ccc(O)cc2oc1=Nc1ccccc1F | 6.42 µM | – | 7.44 µM | > 100 µM | 22.4 µM | 17.4 µM | – | 23.6 µM | 15.1 µM | 17.7 µM | 24.3 µM |
| COc1ccc(C(=O)c2[nH]c(Nc3ccc(Cl)cc3)c(C(=S)Nc3ccccc3)c2N)cc1 | > 100 µM | > 100 µM | > 100 µM | > 100 µM | > 100 µM | – | > 100 µM | > 100 µM | > 100 µM | > 100 µM | – |
| CC(C)(CC(O)C#N)/[N+]([O-])=[N+](\[O-])C(C)(C)CC(O)C#N (stereo not given) | – | 41.9 µM | 49.6 µM | 42.5 µM | > 100 µM | 36.9 µM | 77 µM | > 100 µM | 92.9 µM | 59.5 µM | > 100 µM |
| Nc1ccc(C(=O)NN2C(=O)C(Cl)C2c2ccccc2)cc1 (stereo not given) | > 100 µM | > 100 µM | > 100 µM | > 100 µM | > 100 µM | > 100 µM | > 100 µM | > 100 µM | – | – | – |
| Cc1ccc(/C=C2\CCCC(CN3CCCCC3)C2=O)cc1 (stereo not given) | 3.03 µM | 4.04 µM | 3.72 µM | > 100 µM | 2.72 µM | – | 5.99 µM | 30.9 µM | 23.9 µM | 7.78 µM | 5.74 µM |
